{
  "source": "patent US7875647B2",
  "about": "“Heteroaryl-pyrazole derivatives as cannabinoid CB1 receptor antagonists” (Green Cross Corporation, priority 2006, dated 2011)",
  "target": "T1, Cannabinoid-1 receptor (CB1R) (Rattus norvegicus, UniProt P20272)",
  "T1 construct": "The tissue obtained from the brain of SD rats was homogenized; from tissue; host or cells: brain of SD rats (membrane pellet of the homogenate)",
  "T1 sequence (P20272 whole entry)": "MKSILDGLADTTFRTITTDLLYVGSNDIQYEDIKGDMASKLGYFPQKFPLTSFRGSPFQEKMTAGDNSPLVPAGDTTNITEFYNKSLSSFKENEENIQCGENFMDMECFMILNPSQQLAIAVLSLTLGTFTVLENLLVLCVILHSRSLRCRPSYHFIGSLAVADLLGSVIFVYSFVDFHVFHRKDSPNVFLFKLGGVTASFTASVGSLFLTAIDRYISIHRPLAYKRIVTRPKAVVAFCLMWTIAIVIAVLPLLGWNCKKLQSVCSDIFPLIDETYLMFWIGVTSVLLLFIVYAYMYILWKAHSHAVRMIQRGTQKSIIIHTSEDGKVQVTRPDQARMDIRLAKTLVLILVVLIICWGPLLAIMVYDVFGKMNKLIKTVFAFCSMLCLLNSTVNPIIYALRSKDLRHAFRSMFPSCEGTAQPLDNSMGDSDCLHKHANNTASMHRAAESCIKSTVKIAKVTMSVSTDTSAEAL",
  "assay": "Cannabinoid-1 receptor (CB1R) binding affinity assay ([3H]CP-55940, rat CB-1 receptor binding protocol)",
  "conditions": "brain tissue of SD rats, [3H]CP-55940, 30° C. 60 min; read-out: IC50",
  "data": [
    {"smiles": "Clc1ccc(-c2c(Cn3cncn3)c(-c3nnc(C4(c5ccc(Cl)cc5)CC4)o3)nn2-c2ccc(Cl)cc2Cl)cc1", "note": "[Example 313, 2-(4-((1H-1,2,4-triazol-1-yl)methyl)-5-(4-chlorophenyl)-1-(2,4-dichlorophenyl)-1H-pyrazol-3-yl)-5-(1-(4-chlorophenyl)cyclopropyl)-1,3,4-oxadiazole]", "values": [
      {"measurement": "IC50", "result": 2.21, "unit": "nM"}
    ]},
    {"smiles": "Clc1ccc(-c2c(Cn3cncn3)c(-c3nnc(C4CCC4)o3)nn2-c2ccc(Cl)cc2Cl)cc1", "note": "[Example 315, 2-(4-((1H-1,2,4-triazol-1-yl)methyl)-5-(4-chlorophenyl)-1-(2,4-dichlorophenyl)-1H-pyrazol-3-yl)-5-cyclobutyl-1,3,4-oxadiazole]", "values": [
      {"measurement": "IC50", "result": 3.42, "unit": "nM"}
    ]},
    {"smiles": "Clc1ccc(-c2c(Cn3cncn3)c(-c3nnc(C4CCCCC4)o3)nn2-c2ccc(Cl)cc2Cl)cc1", "note": "[Example 316, 2-(4-((1H-1,2,4-triazol-1-yl)methyl)-5-(4-chlorophenyl)-1-(2,4-dichlorophenyl)-1H-pyrazol-3-yl)-5-cyclohexyl-1,3,4-oxadiazole]", "values": [
      {"measurement": "IC50", "result": 3.42, "unit": "nM"}
    ]},
    {"smiles": "COc1ccc(C2(c3nnc(-c4nn(-c5ccc(Cl)cc5Cl)c(-c5ccc(Cl)cc5)c4Cn4cncn4)o3)CC2)cc1", "note": "[Example 319, 2-(4-((1H-1,2,4-triazol-1-yl)methyl)-5-(4-chlorophenyl)-1-(2,4-dichlorophenyl)-1H-pyrazol-3-yl)-5-(1-(4-methoxyphenyl)cyclopropyl)-1,3,4-oxadiazole]", "values": [
      {"measurement": "IC50", "result": 2.89, "unit": "nM"}
    ]},
    {"smiles": "FC(F)(F)C1(c2nnc(-c3nn(-c4ccc(Cl)cc4Cl)c(-c4ccc(Cl)cc4)c3Cn3cncn3)o2)CCC1", "note": "[Example 321, 2-(4-((1H-1,2,4-triazol-1-yl)methyl)-5-(4-chlorophenyl)-1-(2,4-dichlorophenyl)-1H-pyrazol-3-yl)-5-(1-(trifluoromethyl)cyclobutyl)-1,3,4-oxadiazole]", "values": [
      {"measurement": "IC50", "result": 1.73, "unit": "nM"}
    ]},
    {"smiles": "Clc1ccc(-c2c(Cn3cncn3)c(-c3nnc(C4(c5ccc(Cl)cc5)CCC4)o3)nn2-c2ccc(Cl)cc2Cl)cc1", "note": "[Example 322, 2-(4-((1H-1,2,4-triazol-1-yl)methyl)-5-(4-chlorophenyl)-1-(2,4-dichlorophenyl)-1H-pyrazol-3-yl)-5-(1-(4-chlorophenyl)cyclobutyl)-1,3,4-oxadiazole]", "values": [
      {"measurement": "IC50", "result": 3.41, "unit": "nM"}
    ]},
    {"smiles": "Clc1ccc(-c2c(Cn3cncn3)c(-c3nnc(C4(c5ccccc5)CCCC4)o3)nn2-c2ccc(Cl)cc2Cl)cc1", "note": "[Example 323, 2-(4-((1H-1,2,4-triazol-1-yl)methyl)-5-(4-chlorophenyl)-1-(2,4-dichlorophenyl)-1H-pyrazol-3-yl)-5-(1-phenylcyclopentyl)-1,3,4-oxadiazole]", "values": [
      {"measurement": "IC50", "result": 5.29, "unit": "nM"}
    ]},
    {"smiles": "Clc1ccc(-c2c(Cn3cncn3)c(-c3nnc(C4(c5ccc(Cl)cc5)CCCC4)o3)nn2-c2ccc(Cl)cc2Cl)cc1", "note": "[Example 324, 2-(4-((1H-1,2,4-triazol-1-yl)methyl)-5-(4-chlorophenyl)-1-(2,4-dichlorophenyl)-1H-pyrazol-3-yl)-5-(1-(4-chlorophenyl)cyclopentyl)-1,3,4-oxadiazole]", "values": [
      {"measurement": "IC50", "result": 4.66, "unit": "nM"}
    ]},
    {"smiles": "CC(C)(C)c1nnc(-c2nn(-c3ccccc3Cl)c(-c3ccc(Cl)cc3)c2Cn2cncn2)o1", "note": "[Example 325, 2-(4-((1H-1,2,4-triazol-1-yl)methyl)-1-(2-chlorophenyl)-5-(4-chlorophenyl)-1H-pyrazol-3-yl)-5-tert-butyl-1,3,4-oxadiazole]", "values": [
      {"measurement": "IC50", "result": 2.26, "unit": "nM"}
    ]},
    {"smiles": "CC(C)(C)c1nnc(-c2nn(-c3ccc(Cl)cc3Cl)c(-c3ccc(Br)cc3)c2Cn2cncn2)o1", "note": "[Example 329, 2-(4-((1H-1,2,4-triazol-1-yl)methyl)-5-(4-bromophenyl)-1-(2,4-dichlorophenyl)-1H-pyrazol-3-yl)-5-tert-butyl-1,3,4-oxadiazole]", "values": [
      {"measurement": "IC50", "result": 2.75, "unit": "nM"}
    ]},
    {"smiles": "CC(C)(C)c1nnc(-c2nn(-c3ccc(Cl)cc3Cl)c(-c3ccc(Cl)cc3)c2Cc2nnn[nH]2)o1", "note": "[Example 330, 2-(4-((1H-tetrazol-5-yl)methyl)-5-(4-chlorophenyl)-1-(2,4-dichlorophenyl)-1H-pyrazol-3-yl)-5-tert-butyl-1,3,4-oxadiazole]", "values": [
      {"measurement": "IC50", "result": 897, "unit": "nM"}
    ]},
    {"smiles": "Cn1nnnc1Cc1c(-c2nnc(C(C)(C)C)o2)nn(-c2ccc(Cl)cc2Cl)c1-c1ccc(Cl)cc1", "note": "[Example 332, 2-tert-butyl-5-(5-(4-chlorophenyl)-1-(2,4-dichlorophenyl)-4-((1-methyl-1H-tetrazol-5-yl)methyl)-1H-pyrazol-3-yl)-1,3,4-oxadiazole]", "values": [
      {"measurement": "IC50", "result": 14.8, "unit": "nM"}
    ]},
    {"smiles": "Clc1ccc(-c2c(Cl)c(-c3nnc(C4CCC4)o3)nn2-c2ccc(Cl)cc2Cl)cc1", "note": "[Example 333, 2-(4-chloro-5-(4-chlorophenyl)-1-(2,4-dichlorophenyl)-1H-pyrazol-3-yl)-5-cyclobutyl-1,3,4-oxadiazole]", "values": [
      {"measurement": "IC50", "result": 150, "unit": "nM"}
    ]},
    {"smiles": "CCC(C)(C)c1nnc(-c2nn(-c3ccc(Cl)cc3Cl)c(-c3ccc(Cl)cc3)c2Cl)o1", "note": "[Example 334, 2-(4-chloro-5-(4-chlorophenyl)-1-(2,4-dichlorophenyl)-1H-pyrazol-3-yl)-5-tert-pentyl-1,3,4-oxadiazole]", "values": [
      {"measurement": "IC50", "result": 51, "unit": "nM"}
    ]},
    {"smiles": "Clc1ccc(-c2c(Cl)c(-c3nnc(C4CCCCC4)o3)nn2-c2ccc(Cl)cc2Cl)cc1", "note": "[Example 335, 2-(4-chloro-5-(4-chlorophenyl)-1-(2,4-dichlorophenyl)-1H-pyrazol-3-yl)-5-cyclohexyl-1,3,4-oxadiazole]", "values": [
      {"measurement": "IC50", "result": 512, "unit": "nM"}
    ]},
    {"smiles": "CCC(C)c1nnc(-c2nn(-c3ccc(Cl)cc3Cl)c(-c3ccc(Cl)cc3)c2Cl)o1", "note": "(centres unmarked) [Example 336, 2-sec-butyl-5-(4-chloro-5-(4-chlorophenyl)-1-(2,4-dichlorophenyl)-1H-pyrazol-3-yl)-1,3,4-oxadiazole]", "values": [
      {"measurement": "IC50", "result": 207, "unit": "nM"}
    ]},
    {"smiles": "CC(C)(C)c1nnc(-c2nn(-c3ccc(Cl)cc3Cl)c(-c3ccc(Cl)cc3)c2Cl)o1", "note": "[Example 337, 2-tert-butyl-5-(4-chloro-5-(4-chlorophenyl)-1-(2,4-dichlorophenyl)-1H-pyrazol-3-yl)-1,3,4-oxadiazole]", "values": [
      {"measurement": "IC50", "result": 105, "unit": "nM"}
    ]},
    {"smiles": "CC(C)(C)c1nnc(-c2nn(-c3ccc(Cl)cc3Cl)c(-c3ccc(Cl)cc3)c2Br)o1", "note": "[Example 338, 2-(4-bromo-5-(4-chlorophenyl)-1-(2,4-dichlorophenyl)-1H-pyrazol-3-yl)-5-tert-butyl-1,3,4-oxadiazole]", "values": [
      {"measurement": "IC50", "result": 30.4, "unit": "nM"}
    ]},
    {"smiles": "CCC(C)c1nnc(-c2nn(-c3ccc(Cl)cc3Cl)c(-c3ccc(Cl)cc3)c2Br)o1", "note": "(centres unmarked) [Example 339, 2-(4-bromo-5-(4-chlorophenyl)-1-(2,4-dichlorophenyl)-1H-pyrazol-3-yl)-5-sec-butyl-1,3,4-oxadiazole]", "values": [
      {"measurement": "IC50", "result": 21.3, "unit": "nM"}
    ]},
    {"smiles": "Clc1ccc(-c2c(Br)c(-c3nnc(C4CCC4)o3)nn2-c2ccc(Cl)cc2Cl)cc1", "note": "[Example 340, 2-(4-bromo-5-(4-chlorophenyl)-1-(2,4-dichlorophenyl)-1H-pyrazol-3-yl)-5-cyclobutyl-1,3,4-oxadiazole]", "values": [
      {"measurement": "IC50", "result": 35.5, "unit": "nM"}
    ]},
    {"smiles": "Clc1ccc(-c2c(Br)c(-c3nnc(C4CCCCC4)o3)nn2-c2ccc(Cl)cc2Cl)cc1", "note": "[Example 341, 2-(4-bromo-5-(4-chlorophenyl)-1-(2,4-dichlorophenyl)-1H-pyrazol-3-yl)-5-cyclohexyl-1,3,4-oxadiazole]", "values": [
      {"measurement": "IC50", "result": 81.4, "unit": "nM"}
    ]},
    {"smiles": "CCC(C)(C)c1nnc(-c2nn(-c3ccc(Cl)cc3Cl)c(-c3ccc(Cl)cc3)c2Br)o1", "note": "[Example 342, 2-(4-bromo-5-(4-chlorophenyl)-1-(2,4-dichlorophenyl)-1H-pyrazol-3-yl)-5-tert-pentyl-1,3,4-oxadiazole]", "values": [
      {"measurement": "IC50", "result": 27.8, "unit": "nM"}
    ]},
    {"smiles": "CC(C)(c1ccc(Cl)cc1)c1nnc(-c2nn(-c3ccc(Cl)cc3Cl)c(-c3ccc(Cl)cc3)c2Br)o1", "note": "[Example 343, 2-(4-bromo-5-(4-chlorophenyl)-1-(2,4-dichlorophenyl)-1H-pyrazol-3-yl)-5-(2-(4-chlorophenyl)propan-2-yl)-1,3,4-oxadiazole]", "values": [
      {"measurement": "IC50", "result": 22.2, "unit": "nM"}
    ]},
    {"smiles": "Clc1ccc(-c2c(Br)c(-c3nnc(C4(c5ccc(Cl)cc5)CC4)o3)nn2-c2ccc(Cl)cc2Cl)cc1", "note": "[Example 344, 2-(4-bromo-5-(4-chlorophenyl)-1-(2,4-dichlorophenyl)-1H-pyrazol-3-yl)-5-(1-(4-chlorophenyl)cyclopropyl)-1,3,4-oxadiazole]", "values": [
      {"measurement": "IC50", "result": 11.6, "unit": "nM"}
    ]},
    {"smiles": "Cc1c(-c2nnc(C3CCC3)s2)nn(-c2ccc(Cl)cc2Cl)c1-c1ccc(Cl)cc1", "note": "[Example 345, 2-(5-(4-chlorophenyl)-1-(2,4-dichlorophenyl)-4-methyl-1H-pyrazol-3-yl)-5-cyclobutyl-1,3,4-thiadiazole]", "values": [
      {"measurement": "IC50", "result": 4.08, "unit": "nM"}
    ]},
    {"smiles": "Cc1c(-c2nnc(C3CCCC3)s2)nn(-c2ccc(Cl)cc2Cl)c1-c1ccc(Cl)cc1", "note": "[Example 346, 2-(5-(4-chlorophenyl)-1-(2,4-dichlorophenyl)-4-methyl-1H-pyrazol-3-yl)-5-cyclopentyl-1,3,4-thiadiazole]", "values": [
      {"measurement": "IC50", "result": 8.8, "unit": "nM"}
    ]},
    {"smiles": "Cc1c(-c2nnc(-c3cccs3)s2)nn(-c2ccc(Cl)cc2Cl)c1-c1ccc(Cl)cc1", "note": "[Example 351, 2-(5-(4-chlorophenyl)-1-(2,4-dichlorophenyl)-4-methyl-1H-pyrazol-3-yl)-5-(thiophen-2-yl)-1,3,4-thiadiazole]", "values": [
      {"measurement": "IC50", "result": 63.3, "unit": "nM"}
    ]},
    {"smiles": "Cc1c(-c2nnc(Cc3ccccn3)s2)nn(-c2ccc(Cl)cc2Cl)c1-c1ccc(Cl)cc1", "note": "[Example 352, 2-(5-(4-chlorophenyl)-1-(2,4-dichlorophenyl)-4-methyl-1H-pyrazol-3-yl)-5-(pyridin-2-ylmethyl)-1,3,4-thiadiazole]", "values": [
      {"measurement": "IC50", "result": 41.2, "unit": "nM"}
    ]},
    {"smiles": "Cc1c(-c2nnc(C(C)C)s2)nn(-c2ccc(Cl)cc2Cl)c1-c1ccc(Cl)cc1", "note": "[Example 353, 2-(5-(4-chlorophenyl)-1-(2,4-dichlorophenyl)-4-methyl-1H-pyrazol-3-yl)-5-isopropyl-1,3,4-thiadiazole]", "values": [
      {"measurement": "IC50", "result": 21.5, "unit": "nM"}
    ]},
    {"smiles": "Cc1c(-c2nnc(Cc3ccccc3)s2)nn(-c2ccc(Cl)cc2Cl)c1-c1ccc(Cl)cc1", "note": "[Example 354, 2-benzyl-5-(5-(4-chlorophenyl)-1-(2,4-dichlorophenyl)-4-methyl-1H-pyrazol-3-yl)-1,3,4-thiadiazole]", "values": [
      {"measurement": "IC50", "result": 26, "unit": "nM"}
    ]},
    {"smiles": "CCCCc1nnc(-c2nn(-c3ccc(Cl)cc3Cl)c(-c3ccc(Cl)cc3)c2C)s1", "note": "[Example 355, 2-Butyl-5-(5-(4-chlorophenyl)-1-(2,4-dichlorophenyl)-4-methyl-1H-pyrazol-3-yl)-1,3,4-thiadiazole]", "values": [
      {"measurement": "IC50", "result": 46, "unit": "nM"}
    ]},
    {"smiles": "Cc1c(-c2nnc(-c3ccccc3)s2)nn(-c2ccc(Cl)cc2Cl)c1-c1ccc(Cl)cc1", "note": "[Example 356, 2-(5-(4-Chlorophenyl)-1-(2,4-dichlorophenyl)-4-methyl-1H-pyrazol-3-yl)-5-phenyl-1,3,4-thiadiazole]", "values": [
      {"measurement": "IC50", "result": 231, "unit": "nM"}
    ]}
  ]
}
